Patent EP3046573B1, “AMYLIN ANALOGUES” (Zealand Pharma A/S, priority 2013, dated 2015)
Where two headings read alike, the source gives them in different places. Numbered stars: 1 amine (or outer) side, 2 acyl side, 3 side chain; on linkers, the order of the positions; unused ones are H or OH. Bridge positions count the residues as written; N and C are the ends. Square brackets hold non-standard residues; d marks the D form. Peptide text beside a SMILES is read from it. * marks the point of attachment. C20 diacid = O=C(O)CCCCCCCCCCCCCCCCCCC(=O)*; γGlu = O=C(O)[C@H](CCC(=O)[*:2])N[*:1]; NMeI = CC[C@H](C)[C@H](NC)C(=O)O; Sar = CNCC(=O)O

Columns and labels:
[1] = biological target: T1, human calcitonin receptor (hCTR2) (Homo sapiens, UniProt P30988); assay: hCTR2 assay: induction of cAMP (AlphaScreen cAMP Assay kit) in COS7 cells expressing hCTR2; format: cell-based
T1 construct: expressed in transfected cells
T1 sequence (P30988 25-474): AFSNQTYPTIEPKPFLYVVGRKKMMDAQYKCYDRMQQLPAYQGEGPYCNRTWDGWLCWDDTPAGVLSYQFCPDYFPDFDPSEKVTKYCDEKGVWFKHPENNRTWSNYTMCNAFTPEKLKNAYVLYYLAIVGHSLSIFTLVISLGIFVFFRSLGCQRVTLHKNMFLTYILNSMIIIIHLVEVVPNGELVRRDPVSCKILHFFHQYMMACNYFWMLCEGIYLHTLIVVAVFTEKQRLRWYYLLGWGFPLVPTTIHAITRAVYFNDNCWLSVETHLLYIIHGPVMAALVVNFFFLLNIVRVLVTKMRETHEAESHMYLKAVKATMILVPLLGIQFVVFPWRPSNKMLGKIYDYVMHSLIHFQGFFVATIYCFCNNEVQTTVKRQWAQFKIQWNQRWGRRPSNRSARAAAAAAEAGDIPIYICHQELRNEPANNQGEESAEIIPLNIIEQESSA
Summary of the method: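 Stable hCTR2 clone in RAMP-naive COS7 cells; peptides titrated in Tyrode buffer (pH 7.4) with 100 µM IBMX, 0.1% casein, 15 min at 37° C. cAMP read by AlphaScreen after lysis; EC50 and efficacy relative to pramlintide from 4PL fit.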

[2] = Solubility assessment (turbidity absorbance at 325 nm); format: physicochemical; conditions: stock 2 mg/ml diluted 1:1, ambient temperature (typically 25°C), n=1; for Solubility, Acetate buffer pH 4: 100 mM acetate buffer pH 4.0; for Solubility, Acetate buffer pH 5: 100 mM acetate buffer pH 5.0; for Solubility, Histidine buffer pH 6: 100 mM histidine buffer pH 6.0; for Solubility, Histidine buffer pH 7: 100 mM histidine buffer pH 7.0; for Solubility, Phosphate buffer pH 6: 100 mM phosphate buffer pH 6.0; for Solubility, Phosphate buffer pH 7: 100 mM phosphate buffer pH 7.0; for Solubility, Phosphate buffer pH 7.5: 100 mM phosphate buffer pH7.5
Summary of the method: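 Peptide stock (2 mg/ml) in water acidified to pH 2.5 with HCl was diluted 1:1 into 100 mM acetate (pH 4.0, 5.0), histidine (pH 6.0, 7.0) or phosphate (pH 6.0, 7.0, 7.5) buffer. A280 and A325 were read at about 25°C, n=1. A325 ≤ 0.02 meant solubility ≥ 1 mg/ml.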

[3] = cAMP induction in COS7 cells expressing hCTR2, average of a minimum of 3 determinations, read-out: hCTR2 EC50

CC[C@H](C)[C@@H](C(=O)N[C@@H](CC(C)C)C(=O)N[C@@H](CO)C(=O)N[C@H](C(=O)N[C@@H](CC(N)=O)C(=O)N[C@H](C(=O)NCC(=O)N[C@@H](CO)C(=O)N[C@@H](CC(N)=O)C(=O)N[C@H](C(=O)N1CCC[C@H]1C(N)=O)[C@@H](C)O)C(C)C)[C@@H](C)O)N(C)C(=O)CN(C)C(=O)[C@H](Cc1ccccc1)NC(=O)[C@H](CC(N)=O)NC(=O)[C@H](CC(N)=O)NC(=O)[C@H](CO)NC(=O)[C@H](CO)NC(=O)[C@H](Cc1c[nH]cn1)NC(=O)[C@H](Cc1c[nH]cn1)NC(=O)[C@H](CC(C)C)NC(=O)[C@H](Cc1ccccc1)NC(=O)[C@H](CCC(=O)O)NC(=O)[C@H](C)NC(=O)[C@H](CC(C)C)NC(=O)[C@H](CCCNC(=N)N)NC(=O)[C@H](CCC(N)=O)NC(=O)[C@@H](NC(=O)[C@H](C)NC(=O)[C@@H]1CSSC[C@H](NC(=O)[C@H](CCCNC(=N)N)NC(=O)CC[C@H](NC(=O)CCCCCCCCCCCCCCCCCCC(=O)O)C(=O)O)C(=O)N[C@@H](CC(N)=O)C(=O)N[C@@H]([C@@H](C)O)C(=O)N[C@@H](C)C(=O)N[C@@H]([C@@H](C)O)C(=O)N1)[C@@H](C)O [Compound 26, [19CD]-isoGlu-RC()NTATC()ATQRLAEFLHHSSNNF-Gly(Me)-Ile(Me)-LSTNVGSNTP-NH2] ({C20 diacid-γGlu}-RCNTATCATQRLAEFLHHSSNNF[Sar][NMeI]LSTNVGSNTP-NH2; disulfide 2-7)
EC50 [1, 3]: 0.11 nM | Solubility, Acetate buffer pH 4 [2]: SS (SS indicates solubility ≥ 1mg/ml) | Solubility, Acetate buffer pH 5 [2]: SS (SS indicates solubility ≥ 1mg/ml) | Solubility, Histidine buffer pH 6 [2]: SS (SS indicates solubility ≥ 1mg/ml) | Solubility, Histidine buffer pH 7 [2]: SS (SS indicates solubility ≥ 1mg/ml) | Solubility, Phosphate buffer pH 6 [2]: SS (SS indicates solubility ≥ 1mg/ml) | Solubility, Phosphate buffer pH 7 [2]: SS (SS indicates solubility ≥ 1mg/ml) | Solubility, Phosphate buffer pH 7.5 [2]: SS (SS indicates solubility ≥ 1mg/ml)

CC[C@@H](C)[C@@H](NC(=O)[C@H](C)NC(=O)CN(C)C(=O)[C@H](Cc1ccccc1)NC(=O)[C@H](CC(N)=O)NC(=O)[C@H](CC(N)=O)NC(=O)[C@H](CO)NC(=O)[C@H](CO)NC(=O)[C@H](Cc1c[nH]cn1)NC(=O)[C@H](Cc1c[nH]cn1)NC(=O)[C@H](CC(C)C)NC(=O)[C@H](Cc1ccccc1)NC(=O)[C@H](CCC(=O)O)NC(=O)[C@H](C)NC(=O)[C@H](CC(C)C)NC(=O)[C@H](CCCNC(=N)N)NC(=O)[C@H](CCC(N)=O)NC(=O)[C@@H](NC(=O)[C@H](C)NC(=O)[C@@H]1CSSC[C@H](NC(=O)[C@H](CCCNC(=N)N)NC(=O)CC[C@H](NC(=O)CCCCCCCCCCCCCCCCCCC(=O)O)C(=O)O)C(=O)N[C@@H](CC(N)=O)C(=O)N[C@@H]([C@@H](C)O)C(=O)N[C@@H](C)C(=O)N[C@@H]([C@@H](C)O)C(=O)N1)[C@@H](C)O)C(=O)N[C@@H](CC(C)C)C(=O)N[C@@H](CO)C(=O)N[C@@H](CO)C(=O)N[C@H](C(=O)N[C@@H](CC(N)=O)C(=O)N[C@H](C(=O)NCC(=O)N[C@@H](CO)C(=O)N[C@@H](CC(N)=O)C(=O)N[C@H](C(=O)N1CCC[C@H]1C(N)=O)[C@@H](C)O)C(C)C)[C@@H](C)O [Compound 28, [19CD]-isoGlu-RC()NTATC()ATQRLAEFLHHSSNNF-Gly(Me)-A-DIle-LSSTNVGSNTP-NH2] ({C20 diacid-γGlu}-RCNTATCATQRLAEFLHHSSNNF[Sar]A[dI]LSSTNVGSNTP-NH2; disulfide 2-7)
EC50 [1]: 0.16 nM | Solubility, Acetate buffer pH 4 [2]: SS (SS indicates solubility ≥ 1mg/ml) | Solubility, Acetate buffer pH 5 [2]: SS (SS indicates solubility ≥ 1mg/ml) | Solubility, Histidine buffer pH 6 [2]: SS (SS indicates solubility ≥ 1mg/ml) | Solubility, Histidine buffer pH 7 [2]: SS (SS indicates solubility ≥ 1mg/ml) | Solubility, Phosphate buffer pH 6 [2]: SS (SS indicates solubility ≥ 1mg/ml) | Solubility, Phosphate buffer pH 7 [2]: SS (SS indicates solubility ≥ 1mg/ml) | Solubility, Phosphate buffer pH 7.5 [2]: SS (SS indicates solubility ≥ 1mg/ml)

CC[C@H](C)[C@@H](C(=O)N[C@@H](CC(C)C)C(=O)N[C@@H](CO)C(=O)N[C@@H](CO)C(=O)N[C@H](C(=O)N[C@@H](CC(N)=O)C(=O)N[C@H](C(=O)NCC(=O)N[C@@H](CO)C(=O)N[C@@H](CC(N)=O)C(=O)N[C@H](C(=O)N1CCC[C@H]1C(N)=O)[C@@H](C)O)C(C)C)[C@@H](C)O)N(C)C(=O)CN(C)C(=O)[C@H](Cc1ccccc1)NC(=O)[C@@H](CC(N)=O)NC(=O)[C@H](CC(N)=O)NC(=O)[C@H](CO)NC(=O)[C@H](CO)NC(=O)[C@H](Cc1c[nH]cn1)NC(=O)[C@H](Cc1c[nH]cn1)NC(=O)[C@H](CC(C)C)NC(=O)[C@H](Cc1ccccc1)NC(=O)[C@H](CCC(=O)O)NC(=O)[C@H](C)NC(=O)[C@H](CC(C)C)NC(=O)[C@H](CCCNC(=N)N)NC(=O)[C@H](CCC(N)=O)NC(=O)[C@@H](NC(=O)[C@H](C)NC(=O)[C@@H]1CSSC[C@H](NC(=O)[C@H](CCCNC(=N)N)NC(=O)CC[C@H](NC(=O)CCCCCCCCCCCCCCCCCCC(=O)O)C(=O)O)C(=O)N[C@@H](CC(N)=O)C(=O)N[C@@H]([C@@H](C)O)C(=O)N[C@@H](C)C(=O)N[C@@H]([C@@H](C)O)C(=O)N1)[C@@H](C)O [Compound 36, [19CD]-isoGlu-RC()NTATC()ATQRLAEFLHHSSN-DAsn-F-Gly(Me)-Ile(Me)-LSSTNVGSNTP-NH2] ({C20 diacid-γGlu}-RCNTATCATQRLAEFLHHSSN[dN]F[Sar][NMeI]LSSTNVGSNTP-NH2; disulfide 2-7)
EC50 [1, 3]: 0.17 nM | Solubility, Acetate buffer pH 4 [2]: SS (SS indicates solubility ≥ 1mg/ml) | Solubility, Acetate buffer pH 5 [2]: SS (SS indicates solubility ≥ 1mg/ml) | Solubility, Histidine buffer pH 6 [2]: SS (SS indicates solubility ≥ 1mg/ml) | Solubility, Histidine buffer pH 7 [2]: SS (SS indicates solubility ≥ 1mg/ml) | Solubility, Phosphate buffer pH 6 [2]: SS (SS indicates solubility ≥ 1mg/ml) | Solubility, Phosphate buffer pH 7 [2]: SS (SS indicates solubility ≥ 1mg/ml) | Solubility, Phosphate buffer pH 7.5 [2]: SS (SS indicates solubility ≥ 1mg/ml)

CC[C@H](C)[C@@H](C(=O)N[C@@H](CC(C)C)C(=O)N[C@@H](CO)C(=O)N[C@@H](CO)C(=O)N[C@@H](CC(N)=O)C(=O)N[C@H](C(=O)NCC(=O)N[C@@H](CO)C(=O)N[C@@H](CC(N)=O)C(=O)N[C@H](C(=O)N1CCC[C@H]1C(N)=O)[C@@H](C)O)C(C)C)N(C)C(=O)[C@H](C)NC(=O)CN(C)C(=O)[C@H](Cc1ccccc1)NC(=O)[C@H](CC(N)=O)NC(=O)[C@H](CC(N)=O)NC(=O)[C@H](CO)NC(=O)[C@H](CO)NC(=O)[C@H](Cc1c[nH]cn1)NC(=O)[C@H](Cc1c[nH]cn1)NC(=O)[C@H](CC(C)C)NC(=O)[C@H](Cc1ccccc1)NC(=O)[C@H](CCC(=O)O)NC(=O)[C@H](C)NC(=O)[C@H](CC(C)C)NC(=O)[C@H](CCCNC(=N)N)NC(=O)[C@H](CCC(N)=O)NC(=O)[C@@H](NC(=O)[C@H](C)NC(=O)[C@@H]1CSSC[C@H](NC(=O)[C@H](CCCNC(=N)N)NC(=O)CC[C@H](NC(=O)CCCCCCCCCCCCCCCCCCC(=O)O)C(=O)O)C(=O)N[C@@H](CC(N)=O)C(=O)N[C@@H]([C@@H](C)O)C(=O)N[C@@H](C)C(=O)N[C@@H]([C@@H](C)O)C(=O)N1)[C@@H](C)O [Compound 37, [19CD]-isoGlu-RC()NTATC()ATQRLAEFLHHSSNNF-Gly(Me)-A-Ile(Me)-LSSNVGSNTP-NH2] ({C20 diacid-γGlu}-RCNTATCATQRLAEFLHHSSNNF[Sar]A[NMeI]LSSNVGSNTP-NH2; disulfide 2-7)
EC50 [1]: 0.39 nM | Solubility, Acetate buffer pH 4 [2]: SS (SS indicates solubility ≥ 1mg/ml) | Solubility, Acetate buffer pH 5 [2]: SS (SS indicates solubility ≥ 1mg/ml) | Solubility, Histidine buffer pH 6 [2]: SS (SS indicates solubility ≥ 1mg/ml) | Solubility, Histidine buffer pH 7 [2]: SS (SS indicates solubility ≥ 1mg/ml) | Solubility, Phosphate buffer pH 6 [2]: SS (SS indicates solubility ≥ 1mg/ml) | Solubility, Phosphate buffer pH 7 [2]: SS (SS indicates solubility ≥ 1mg/ml) | Solubility, Phosphate buffer pH 7.5 [2]: SS (SS indicates solubility ≥ 1mg/ml)
